From US20200385371A1 (Propellon Therapeutics Inc., priority 2017, published 2020)
pEC50, pIC50, pKd: −log10 of the molar value. Where a name gives a salt, the structure may show the parent alone.

Assays:
[1] = molecular target: T1, WDR5 (Homo sapiens, UniProt P61964); experiment: Fluorescence Polarization (FP) binding assay
Summary of the method: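 Displacement of fluorescein-labelled H3 (1-15) (30 nM, with 0.3 μM WDR5) or 9-Ala-FAM (20 nM, with 0.05 μM WDR5) in 80 mM sodium phosphate pH 6.5, 20 mM KCl, 0.008% Triton X-100. FP read at 485/528 nm (H3) or 480/540 nm (9-Ala-FAM); Kdisp from hyperbolic fit, mean of quadruplicates.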

[2] = test system: MV4-11 cells; experiment: Cell proliferation assay (ATPlite); format: cell-based; settings: Homo sapiens, 120 h; MV4-11 cells, five days; read-out: GI MV411 EC50
Summary of the method: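 Cells seeded at 1,000/well in Alpha-MEM with 10% FBS, treated with compound over a 10-point range (top 10 μM) or DMSO. Grown five days at 37° C, 5% CO2; viability by ATPlite luminescence.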

[3] = molecular target: T1, WDR5; experiment: Surface Plasmon Resonance (SPR) assay; format: binding; design: Full length WDR5 with an N-terminal His tag and C-terminal AviTag; His tag (N); made in house; host or cells: E. coli; settings: read-out: SPR Kd
Summary of the method: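 Full-length biotinylated WDR5 (N-His, C-AviTag, E. coli) captured (~3000 RU) on streptavidin SA chip; Biacore T200. HBS-EP pH 7.4 plus 5% DMSO running buffer, 40 μl/min.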

Row | pIC50 [1] | pEC50 [2] | pKd [3] | SMILES
1 | 7.93 | 6.74 | 8.84 | C[C@H]1CN(c2cc(F)c(C3=CCCN(c4ncc(C#N)s4)C3)c(F)c2NC(=O)c2c[nH]c(=O)cc2C(F)(F)F)CCN1C [Example 100, (S)—N-(3-(1-(5-cyanothiazol-2-yl)-1,2,5,6-tetrahydropyridin-3-yl)-6-(3,4-dimethylpiperazin-1-yl)-2,4-difluorophenyl)-6-oxo-4-(trifluoromethyl)-1,6-dihydropyridine-3-carboxamide]
2 | 7.82 | 7.00 | 8.90 | C[C@@H]1CN(c2nccc(-c3c(F)cc(N4CCN(C)[C@@H](C)C4)c(NC(=O)c4c[nH]c(=O)cc4C(F)(F)F)c3F)n2)C[C@H](C)O1 [Example 58, N-(3-(2-((2S,6R)-2,6-dimethylmorpholino)pyrimidin-4-yl)-6-((S)-3,4-dimethylpiperazin-1-yl)-2,4-difluorophenyl)-6-oxo-4-(trifluoromethyl)-1,6-dihydropyridine-3-carboxamide]
3 | 7.83 | 7.19 | 8.94 | C[C@@H]1CN(c2nccc(-c3c(F)cc(N4C[C@@H](C)N(C)[C@@H](C)C4)c(NC(=O)c4c[nH]c(=O)cc4C(F)F)c3F)n2)C[C@H](C)O1 [Example 78, 4-(Difluoromethyl)-N-(3-(2-((2S,6R)-2,6-dimethylmorpholino)pyrimidin-4-yl)-2,4-difluoro-6-((3S,5R)-3,4,5-trimethylpiperazin-1-yl)phenyl)-6-oxo-1,6-dihydropyridine-3-carboxamide]
4 | 7.76 | 6.73 | 7.79 | CC(C)OC(=O)N1CCC=C(c2c(F)cc(N3CCN(C)[C@@H](C)C3)c(NC(=O)c3c[nH]c(=O)cc3C(F)(F)F)c2F)C1 [Example 38, Isopropyl (S)-5-(4-(3,4-dimethylpiperazin-1-yl)-2,6-difluoro-3-(6-oxo-4-(trifluoromethyl)-1,6-dihydropyridine-3-carboxamido)phenyl)-3,6-dihydropyridine-1(2H)-carboxylate]
5 | 7.80 | 7.61 | 8.87 | C[C@H]1CN(c2cc(F)c(-c3cnc(N4CCNCC4)nc3)c(F)c2NC(=O)c2ccc(F)cc2C(F)(F)F)CCN1C [Example 173, (S)—N-(6-(3,4-dimethylpiperazin-1-yl)-2,4-difluoro-3-(2-(piperazin-1-yl)pyrimidin-5-yl)phenyl)-4-fluoro-2-(trifluoromethyl)benzamide]
6 | 7.94 | 7.12 | 9.18 | C[C@@H]1CN(c2ncc(-c3c(F)cc(N4CCN(C)[C@@H](C)C4)c(NC(=O)c4ccc(F)cc4C(F)(F)F)c3F)cn2)C[C@@H](C)O1 [Example 167, N-(3-(2-((2R,6R)-2,6-dimethylmorpholino)pyrimidin-5-yl)-6-((S)-3,4-dimethylpiperazin-1-yl)-2,4-difluorophenyl)-4-fluoro-2-(trifluoromethyl)benzamide Formic Acid Salt]
7 | 7.79 | 7.28 | 9.31 | C[C@H]1CN(c2ccc(-c3c(F)cc(N4CCN(C)[C@@H](C)C4)c(NC(=O)c4c[nH]c(=O)cc4C(F)(F)F)c3F)cn2)CCO1 [Example 171, N-(6-((S)-3,4-dimethylpiperazin-1-yl)-2,4-difluoro-3-(6-((S)-2-methylmorpholino)pyridin-3-yl)phenyl)-6-oxo-4-(trifluoromethyl)-1,6-dihydropyridine-3-carboxamide]
8 | 7.68 | 6.62 | 8.78 | C[C@@H]1CN(c2cc(F)c(C3=CCCN(c4ncc(F)cn4)C3)c(F)c2NC(=O)c2c[nH]c(=O)cc2C(F)(F)F)C[C@H](C)N1C [Example 146, N-(2,4-difluoro-3-(1-(5-fluoropyrimidin-2-yl)-1,2,5,6-tetrahydropyridin-3-yl)-6-((3S,5R)-3,4,5-trimethylpiperazin-1-yl)phenyl)-6-oxo-4-(trifluoromethyl)-1,6-dihydropyridine-3-carboxamide]
9 | 7.90 | 6.31 | 8.82 | C[C@@H]1CN(c2cc(F)c(C3=CCCN(C(=O)c4csc(CN(C)C)n4)C3)c(F)c2NC(=O)c2c[nH]c(=O)cc2C(F)(F)F)C[C@H](C)N1C [Example 189, N-(3-(1-(2-((dimethylamino)methyl)thiazole-4-carbonyl)-1,2,5,6-tetrahydropyridin-3-yl)-2,4-difluoro-6-((3S,5R)-3,4,5-trimethylpiperazin-1-yl)phenyl)-6-oxo-4-(trifluoromethyl)-1,6-dihydropyridine-3-carboxamide]
10 | 7.89 | 7.13 | 8.68 | C[C@@H]1CN(c2cc(F)c(C3=CCN(c4ncc(C#N)s4)CC3)c(F)c2NC(=O)c2c[nH]c(=O)cc2C(F)(F)F)C[C@H](C)N1C [Example 148, N-(3-(1-(5-cyanothiazol-2-yl)-1,2,3,6-tetrahydropyridin-4-yl)-2,4-difluoro-6-((3S,5R)-3,4,5-trimethylpiperazin-1-yl)phenyl)-6-oxo-4-(trifluoromethyl)-1,6-dihydropyridine-3-carboxamide]
11 | 7.83 | 7.84 | 8.41 | CC(C)[C@@H]1CN(c2ncc(-c3c(F)cc(N4C[C@@H](C)N(C)[C@@H](C)C4)c(NC(=O)c4c[nH]c(=O)cc4C(F)(F)F)c3F)cn2)CCO1 [Example 105, N-(2,4-difluoro-3-(2-((R)-2-isopropylmorpholino)pyrimidin-5-yl)-6-((3S,5R)-3,4,5-trimethylpiperazin-1-yl)phenyl)-6-oxo-4-(trifluoromethyl)-1,6-dihydropyridine-3-carboxamide]
12 | 7.93 | 7.84 | 9.36 | CC(C)[C@H]1CN(c2ncc(-c3c(F)cc(N4CCN(C)[C@@H](C)C4)c(NC(=O)c4c[nH]c(=O)cc4C(F)(F)F)c3F)cn2)CCO1 [Example 102, N-(6-((S)-3,4-dimethylpiperazin-1-yl)-2,4-difluoro-3-(2-((S)-2-isopropylmorpholino)pyrimidin-5-yl)phenyl)-6-oxo-4-(trifluoromethyl)-1,6-dihydropyridine-3-carboxamide]
13 | 7.78 | 6.96 | 8.90 | C[C@@H]1CN(c2cc(F)c(-c3cnc4c(c3)OCCO4)c(F)c2NC(=O)c2c[nH]c(=O)cc2C(F)(F)F)C[C@H](C)N1C [Example 73, N-(3-(2,3-dihydro-[1,4]dioxino[2,3-b]pyridin-7-yl)-2,4-difluoro-6-((3S,5R)-3,4,5-trimethylpiperazin-1-yl)phenyl)-6-oxo-4-(trifluoromethyl)-1,6-dihydropyridine-3-carboxamide]
14 | 7.79 | 6.97 | 8.65 | CC(C)OC(=O)N1CC=C(c2c(F)cc(N3CCN(C)[C@@H](C)C3)c(NC(=O)c3c[nH]c(=O)cc3C(F)(F)F)c2F)C1 [Example 37, Isopropyl (S)-3-(4-(3,4-dimethylpiperazin-1-yl)-2,6-difluoro-3-(6-oxo-4-(trifluoromethyl)-1,6-dihydropyridine-3-carboxamido)phenyl)-2,5-dihydro-1H-pyrrole-1-carboxylate]
15 | 7.58 | 6.77 | 8.89 | C[C@H]1CN(c2cc(F)c(-c3ccc4c(c3)OCCO4)c(F)c2NC(=O)c2c[nH]c(=O)cc2C(F)(F)F)CCN1C [Example 185, (S)—N-(3-(2,3-dihydrobenzo[b][1,4]dioxin-6-yl)-6-(3,4-dimethylpiperazin-1-yl)-2,4-difluorophenyl)-6-oxo-4-(trifluoromethyl)-1,6-dihydropyridine-3-carboxamide]
